Bounds are passed on as bounds.

For data set [1], the system named is HLF cells. Kind of data set: MTT cytotoxicity evaluation in HLF cells. The class given is cell-based, human. The note with it: all treatment concentrations up to 10 μM, incubated for 24, 48, and 72 hours, compared to untreated control. Here is the method:
(§1) To confirm the effect of novel flavone derivative I on cell viability, human lung fibroblasts (HLF) were used to examine cell viability with MTT [3-(4,5-dimethylthiazol-2-yl)-2,5-diphenyltetrazolium bromide]. After being suspended in a medium, HLF cells were dispensed into a 96-well plate and incubated for 24 hours. […] After incubation, all media was removed, and MTT was diluted (0.5 mg/mL) in phosphate-buffered saline (PBS). Then, 200 μL of the diluted MTT was dispensed into each well, and incubation was performed in a CO2 incubator for 4 hours. After 4 hours, the MTT solution was removed, and 160 μL of dimethyl sulfoxide (DMSO) was dispensed into each well to dissolve the formazan precipitate for 30 minutes. Next, the absorbance was measured at 570 nm.
(§2) Cytotoxicity tests of novel flavone derivative II (Achem II) on A549 cells, HULEC-5a cells, and HLF cells were performed in the same manner as in Example 1 above, using the MTT assay. The results thereof are shown in FIGS. 17 to 19 as cell viability (%) after 24, 48, and 72 hours compared to that of the control group, the untreated sample group.
(§3) Cytotoxicity tests of novel flavone derivative III (Achem III) on A549 cells, HULEC-5a cells, and HLF cells were performed in the same manner as in Example 1 above, using the MTT assay. The results thereof are shown in FIGS. 27 to 29 as cell viability (%) after 24, 48, and 72 hours compared to that of the control group, the untreated sample group.

Data set [2] deals with HULEC-5a cells. As to the kind of experiment: Effect upon TGF-β1 treatment in Hulec-5a cells (western blot of protein levels). Type of data set: cell-based, human. As to the method: (§4) 1.2×10^6 Hulec-5a cells, derived from pulmonary vessels, were suspended in a medium, dispensed into a 100-mm plate, and incubated for 24 hours. After 24 hours of incubation, each plate was treated with TGF-β1 (10 ng/ml) alone or in combination with novel flavone derivative I at varying concentrations or a predetermined concentration and/or nintedanib (NIDB), a therapeutic drug for idiopathic pulmonary fibrosis and interstitial lung disease. After 3, 24, and 48 hours of incubation, the cells were lysed with RIPA lysis buffer ([50 mM Tris]-Cl (pH, 7.4), 1% NP-40, 150 mM NaCl, 1 mM EDTA, and 1 mM phenylmethylsulfonyl fluoride (PMSF)) containing MG-132 (10 μM, proteasome inhibitor, protect the HIF-1α subunit from proteasome degradation). Next, only the supernatant was collected by centrifugation (at 13,000 rpm for 7 minutes) at 4° C., and the proteins were separated by SDS-polyacrylamide gel electrophoresis (SDS-PAGE). The separated proteins were transferred to a polyvinylidene difluoride membrane (PVDF membrane), reacted in 5% nonfat dry milk for 2 hours, and then reacted with primary antibodies at 4° C. overnight. After overnight, the proteins further reacted with secondary antibodies corresponding to the respective primary antibodies. Then, the protein band was examined, according to the manufacturer's protocol, using an ECL kit.
The effect of novel flavone derivative II upon TGF-β1 treatment in Hulec-5a cells was evaluated in the same manner as in Example 1 above.
The effect of novel flavone derivative III upon TGF-β1 treatment in Hulec-5a cells was evaluated in the same manner as in Example 1 above.
For orientation: In western blotting, separated proteins are transferred to a membrane and probed.

Data set [3] has as its system HULEC-5a cells. As to the kind of experiment: MTT cytotoxicity evaluation in HULEC-5a cells. The note with it: incubated for 24, 48, and 72 hours. The class given is cell-based, human. As to the method: as §1, with “viability, HULEC-5a,” for “viability,”, “microvascular endothelial cells,” for “fibroblasts (HLF)”, “HULEC-5a” for “HLF”
as §2, §3

In data set [4] the test system is HLF cells. As to the kind of experiment: Effect upon TGF-β1 treatment in HLF cells (western blot of protein levels). The class given is cell-based, human. Here is the method: as §4, with “After suspending 5×10^6 human lung fibroblast (HLF) cells in a medium, […]” for “1.2×10^6”, “[…]” for “in a”, “hours. […]” for “hours.”, “24” for “24 hours of incubation, each plate was treated with TGF-β1 (10 ng/ml) alone or in combination with novel flavone derivative I at varying concentrations or a predetermined concentration and/or nintedanib (NIDB), a therapeutic drug for idiopathic pulmonary fibrosis and interstitial lung disease. After 3, 24,”
The effect of novel flavone derivative II upon TGF-β1 treatment in HLF cells was evaluated in the same manner as in Example 1 above.
The effect of novel flavone derivative III upon TGF-β1 treatment in HLF cells was evaluated in the same manner as in Example 1 above.

For another data set, the system named is A549 cells. Kind of data set: Effect upon TGF-β1 treatment in A549 cells (western blot of protein levels). Type of data set: cell-based. Here is the method: 3.5*10^5 A549 cells, derived from lung cancer, were suspended in a medium, dispensed into a 60-mm plate, and incubated for 48 hours. After 48 hours of incubation, each plate was treated with TGF-β1 (10 ng/ml) alone or in combination with novel flavone derivative I at varying concentrations or a predetermined concentration and/or nintedanib (NIDB), a therapeutic drug for idiopathic pulmonary fibrosis and interstitial lung disease as a positive control. […] Next, only the supernatant was collected by centrifugation (at 14,000 rpm for 10 minutes) at 4° C., and the proteins were separated by SDS-polyacrylamide gel electrophoresis (SDS-PAGE). The separated proteins were transferred to a polyvinylidene difluoride membrane (PVDF membrane), reacted in 5% nonfat dry milk for 3 hours, and then reacted with primary antibodies at 4° C. for 12 hours. After 12 hours, the proteins further reacted with secondary antibodies corresponding to the respective primary antibodies. Then, the protein band was examined, according to the manufacturer's protocol, using an ECL kit.
The effect of novel flavone derivative II upon TGF-β1 treatment in A549 cells was evaluated in the same manner as in Example 1 above. FIGS. 20 and 21 show the results thereof.
The effect of novel flavone derivative III upon TGF-β1 treatment in A549 cells was evaluated in the same manner as in Example 1 above.

One may read the cell viability as the share of living cells, or the viability signal relative to a control. Low readings indicate a greater loss of cells, high ones better survival. `COc1ccc(-c2c(-c3ccc(O)c(O)c3)oc3cc(OC)c(OC)cc3c2=O)cc1` [novel flavone derivative I, 2-(3,4-dihydroxyphenyl)-6,7-dimethoxy-3-(4-methoxyphenyl)-4H-chromen-4-one] had a cell viability with HLF cells [1] of no less than 80%. Besides, the “levels of fibrosis-related factors (Fibronectin, α-SMA, NOX1, NOX2, and NOX4), increased by TGF-β1 treatment” value in the data set on HULEC-5a cells [2] (HULEC-5a cells, 10 ng/mL TGF-β1 and/or 5 μM compound, 3, 24, and 48 hours, FIG. 9) is “decreased”. The cytotoxicity entry in the data set with HULEC-5a cells [3] (treatment concentrations of up to 5 μM, MTT) is “No cytotoxicity was observed”. Further, the “levels of fibrosis-related factors (fibronectin, COL4, α-SMA, and HIF-1α), increased by TGF-β1 treatment” value in the data set with HLF cells [4] (5 ng/mL TGF-β1 and 1 and 3 μM compound, 24 hours, FIG. 10) was “decreased”. Moreover, the “levels of fibronectin, HIF-1α, NOX2, NOX4, vimentin, p-EGFR, EGFR, and p-AKT proteins, increased by TGF-β1 treatment” value with A549 cells (10 ng/mL TGF-β1 and 5 μM compound, 24 hours, FIG. 7) is “decreased”. For the same compound, the “levels of fibronectin, HIF-1α, and p-c-Src proteins, increased by TGF-β1 treatment” value in the data set with A549 cells (10 ng/mL TGF-β1 and 5 μM compound, 48 hours, FIG. 8) is listed as “decreased”.
As for `COc1ccc(-c2c(-c3ccc(O)c(OC)c3)oc3cc(OC)c(OC)cc3c2=O)cc1` [novel flavone derivative II, 2-(4-hydroxy-3-methoxyphenyl)-6,7-dimethoxy-3-(4-methoxyphenyl)-4H-chromen-4-one], the cell viability in the data set with HLF cells [1] is no less than 80%; with HULEC-5a cells [3] (all treatment concentrations up to 10 μM, compared to untreated control), no less than 80%. Besides, the “levels of fibronectin, COL4, α-SMA, and HIF-1α, increased by TGF-β1 treatment” value in the data set on HULEC-5a cells [2] (Hulec-5a cells, TGF-β1 treatment, FIG. 22) was “decreased”. The “levels of fibronectin, α-SMA, HIF-1α, and COL1, increased by TGF-β1 treatment” value in the data set with HLF cells [4] (TGF-β1 treatment, FIG. 23) is recorded as “decreased”. Further, in the data set with A549 cells (10 ng/mL TGF-β1 and compound, 24 hours, FIGS. 20 and 21), the “levels of Col3, Col4, fibronectin, and NOX4 proteins, increased by TGF-β treatment” value was “decreased”.

(Values after patent publication US20240300913A1, “FLAVONE DERIVATIVE AND USE THEREOF FOR IMPROVING PULMONARY FIBROSIS” (A-CHEMBIO CO., LTD, priority 2023, published 2024).)
